In patent US9096646B2, “CXCR4 receptor compounds” (priority 2008, dated 2015):
Blank lines part the entries; values can stand above or below the molecule they belong to. Square brackets hold non-standard residues; d marks the D form. Peptide text beside a SMILES is read from it. * marks the point of attachment. ξ: configuration not given here. Palmitoyl = CCCCCCCCCCCCCCCC(=O)*; ξF = NC(Cc1ccccc1)C(=O)O

Key:
Assay type in all cases: cell-based
CXCR4 [1] = biological target: T1, CXCR4 (Homo sapiens, UniProt P61073); test: Calcium flux assay in CCRF-CEM cells (SDF-1α activation of CXCR4; intrinsic agonist activity); set-up: a human T-cell ALL line that endogenously expresses CXCR4; endogenous in cells; host or cells: CCRF-CEM (human T-cell ALL line); conditions: SDF-1α activation of CXCR4, Calcium-4 dye, read-out: IC50 (nM), CXCR4 i1 loop compound Calcium Flux Data
T1 sequence (P61073 whole entry): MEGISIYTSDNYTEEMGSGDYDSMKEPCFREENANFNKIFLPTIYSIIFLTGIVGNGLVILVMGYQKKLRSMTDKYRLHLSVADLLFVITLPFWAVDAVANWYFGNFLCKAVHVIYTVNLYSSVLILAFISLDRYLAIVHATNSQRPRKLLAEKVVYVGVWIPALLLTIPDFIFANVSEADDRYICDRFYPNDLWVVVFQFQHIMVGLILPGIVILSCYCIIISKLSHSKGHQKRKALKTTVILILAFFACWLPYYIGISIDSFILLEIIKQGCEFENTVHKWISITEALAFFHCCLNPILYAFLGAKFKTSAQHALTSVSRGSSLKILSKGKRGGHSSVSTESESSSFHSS
Text: Calcium Flux Assay is one of the most popular cell-based GPCR functional assays. It most often uses calcium sensing fluorescent dyes such as fura2 AM, fluo-4 and Calcium-4 to measure changes in intracellular calcium concentration. It is used mainly to detect GPCR signaling via Gaq subunit. Activation of these Gq-coupled GPCRs leads to activation of phospholipase C, which subsequently leads to increase in inositol phosphate production. IP3 receptors on endoplasmic reticulum sense the change then release calcium into cytoplasm. Intracellular calcium binding to the fluorescent dyes can be detected by instruments that quantify fluorescent intensities, such as FLIPR Tetra, Flexstation (MDS) and FDSS (Hamamatsu). In additional to assess Gq-couple receptor signaling, calcium flux assay can also be used to study Gs and Gi couple receptors by co-expressing CNG (cyclic nucleotide gated calcium channel) or chimeric G-proteins (Gqi5, Gsi5 for example). Activation of some Gi-coupled receptors can also be detected by calcium flux assay via Gβγmediated phospholipase C activation.
The calcium flux assay was used to assess SDF-1α activation of CXCR4 in CCRF-CEM cells (human T lymphoblasts from acute lymphoblastic leukemia). CCRF-CEM cells were seeded into 96-well black plates with clear bottom at 200K/well in RPMI 1640 media with 20 mM HEPES containing 0.2% BSA. After dye loading by incubating with Calcium-4 dye at 37° C. for 1 hour, cell plates were read at 37° C. using the Flexstation 3 workstation. The addition of test compounds or reference antagonists was accomplished either by manual pipetting or by liquid handling using the Flexstation. The latter allows the assessment of intrinsic agonist activity of the test compounds by measuring initial changes in fluorescent intensity. After incubation of 24 minutes at 37° C., SDF-1α was added and receptor activation was assessed by measuring changes in fluorescent intensity using the Flexstation.

CXCR4 [2] = biological target: T1, CXCR4; test: Chemotaxis assay, effect on SDF1-a (CXCL12) induced migration of CCRF-CEM cells; set-up: a human T-cell ALL line that endogenously expresses CXCR4; endogenous in cells; host or cells: CCRF-CEM (human T-cell ALL line); conditions: CCRF-CEM, Table 18, i1 loop, CEM cells, drug conc 1.0 uM
Experimental: To initiate cell migration, the assembled transwell plate was placed in a 37° C., 0.5% CO2 incubator for a specified time interval, typically between 30 and 120 minutes. After incubation, the unit was disassembled and the lower chamber placed at −80° C. overnight to facilitate lysis of cells. To quantify migrated cells, plates were thawed at 37° C. in a humidified chamber, and then a sample volume was removed from each well and mixed with an equal volume of CyQuant (Invitrogen) working solution in opaque plates. The fluorescence intensity of each well represents the DNA content and is directly proportional to cell number. […] The plate background control, which included no cells in the upper chamber, was subtracted from all values.

CXCR4 [3] = biological target: T1, CXCR4; test: Chemotaxis assay using SUP B-15 cells; set-up: A similar procedure was followed for chemotaxis using SUP B-15 cells; endogenous in cells; host or cells: SUP B-15 cells; conditions: SUP-B15, Table 18, i1 loop, SUP B-15 cells, drug conc 1.0 uM
Text: Chemotaxis assays were utilized to determine the effect of compound on the directed migration of cells in response to chemokine. Cells that express a receptor of interest were placed in the upper chamber of a Transwell chemotaxis plate (Corning) and allowed to migrate through a polycarbonate membrane to a lower chamber containing the appropriate receptor-specific ligand. To test for antagonist or potentiating activity, cells were mixed with the desired concentration of compound prior to addition to the upper chamber. Conversely, agonist activity was determined by adding compound in the bottom chamber only without endogenous chemokine. The effect of compound is quantified by several parameters, including the extent of maximum response, the shift of agonist dose-response curves, and the area under the curve.
To measure the CXCR4-dependent migration of cells, the appropriate concentration of CXCL12 (SDF1a) or test compound was diluted in phenol red-free RMPI-1640/20 mM HEPES/0.5% BSA buffer and placed in the bottom chamber of a transwell apparatus. CCRF-CEM cells, a human T-cell ALL line that endogenously expresses CXCR4, were washed twice in buffer and resuspended at 133,000 cells/ml. A 75 μl sample of this suspension is mixed with the test compound of interest and placed in the upper chamber of a 5-micron transwell apparatus.
To initiate cell migration, the assembled transwell plate was placed in a 37° C., […] incubator for a specified time interval, typically between 30 and 120 minutes. After incubation, the unit was disassembled and the lower chamber placed at −80° C. overnight to facilitate lysis of cells. To quantify migrated cells, plates were thawed at 37° C. in a humidified chamber, and then a sample volume was removed from each well and mixed with an equal volume of CyQuant (Invitrogen) working solution in opaque plates. The fluorescence intensity of each well represents the DNA content and is directly proportional to cell number. Each sample was typically run in duplicate or triplicate and each plate included two separate negative controls. The plate background control, which included no cells in the upper chamber, was subtracted from all values. The negative control had no agonist added in the lower chamber, and served to establish the baseline for random migration. A similar procedure was followed for chemotaxis using SUP B-15 cells.

SMILES: CCCCCCCCCCCCCCCC(=O)N[C@H](C(=O)N[C@@H](CCSC)C(=O)NCC(=O)N[C@@H](Cc1ccc(O)cc1)C(=O)N[C@@H](CCC(N)=O)C(=O)N[C@@H](CCCCN)C(=O)N[C@@H](CCCCN)C(=O)N[C@@H](CC(C)C)C(=O)N[C@@H](CCCNC(=N)N)C(=O)N[C@@H](CO)C(=O)N[C@@H](CCSC)C(=O)N[C@H](C(=O)N[C@@H](CC(=O)O)C(N)=O)[C@@H](C)O)C(C)C [Compound 35] (Palmitoyl-VMGYQKKLRSMTD-NH2)
activity at 1 µM (CXCR4 [2]; read-out: AUC (% of)): 57.9% | activity at 1 µM (CXCR4 [2]; read-out: Max (% of)): 57% | activity at 1 µM (CXCR4 [3]; read-out: AUC (% of)): 31.7% | activity at 1 µM (CXCR4 [3]; read-out: Max (% of)): 49.3%

SMILES: CCCCCCCCCCCCCCCC(=O)N[C@@H](CCSC)C(=O)NCC(=O)N[C@@H](Cc1ccc(O)cc1)C(=O)N[C@@H](CCC(N)=O)C(=O)N[C@H](CCCCN)C(=O)N[C@@H](CCCCN)C(=O)N[C@@H](CC(C)C)C(=O)N[C@@H](CCCNC(=N)N)C(=O)N[C@@H](CO)C(=O)N[C@@H](CCSC)C(=O)N[C@H](C(=O)N[C@@H](CC(=O)O)C(=O)N[C@@H](CCCCN)C(=O)N[C@@H](Cc1ccc(O)cc1)C(=O)N[C@@H](C)C(=O)N[C@@H](CC(C)C)C(N)=O)[C@@H](C)O [Compound 152] (Palmitoyl-MGYQ[dK]KLRSMTDKYAL-NH2)
IC50 (CXCR4 [1]): > 10000 nM

SMILES: CCCCCCCCCCCCCCCC(=O)N[C@@H](CCCCN)C(=O)N[C@@H](CCCCN)C(=O)N[C@@H](CC(C)C)C(=O)N[C@@H](CCCNC(=N)N)C(=O)N[C@@H](CO)C(=O)N[C@@H](CCSC)C(=O)N[C@H](C(=O)N[C@@H](CC(=O)O)C(=O)N[C@@H](CCCCN)C(=O)N[C@@H](Cc1ccc(O)cc1)C(N)=O)[C@@H](C)O [Compound 46] (Palmitoyl-KKLRSMTDKY-NH2)
activity at 1 µM (CXCR4 [2]; read-out: AUC (% of)): 69.7% | activity at 1 µM (CXCR4 [2]; read-out: Max (% of)): 116% | activity at 1 µM (CXCR4 [3]; read-out: AUC (% of)): 87.2% | activity at 1 µM (CXCR4 [3]; read-out: Max (% of)): 82.9%

SMILES: CCCCCCCCCCCCCCCC(=O)N[C@@H](CCSC)C(=O)NCC(=O)N[C@@H](Cc1ccc(O)cc1)C(=O)N[C@@H](CCC(N)=O)C(=O)N[C@H](CCCCN)C(=O)N[C@@H](CCCCN)C(=O)N[C@@H](CC(C)C)C(=O)N[C@@H](CCCNC(=N)N)C(=O)N[C@@H](CO)C(=O)N[C@@H](CCSC)C(=O)N[C@H](C(=O)N[C@@H](CC(=O)O)C(=O)N[C@@H](CCCCN)C(=O)NC(Cc1ccccc1)C(=O)N[C@@H](CCCNC(=N)N)C(=O)N[C@@H](C)C(N)=O)[C@@H](C)O (stereo partly drawn) [Compound 153] (Palmitoyl-MGYQ[dK]KLRSMTDK[ξF]RA-NH2)
IC50 (CXCR4 [1]): > 10000 nM

SMILES: CCCCCCCCCCCCCCCC(=O)N[C@@H](CCSC)C(=O)NCC(=O)N[C@@H](Cc1ccc(O)cc1)C(=O)N[C@@H](CCC(N)=O)C(=O)N[C@H](CCCCN)C(=O)N[C@@H](CCCCN)C(=O)N[C@@H](CC(C)C)C(=O)N[C@@H](CCCNC(=N)N)C(=O)N[C@@H](CO)C(=O)N[C@@H](CCSC)C(=O)N[C@H](C(=O)N[C@@H](CC(=O)O)C(=O)N[C@@H](CCCCN)C(=O)N[C@@H](C)C(=O)N[C@@H](CCCNC(=N)N)C(=O)N[C@@H](CC(C)C)C(N)=O)[C@@H](C)O [Compound 151] (Palmitoyl-MGYQ[dK]KLRSMTDKARL-NH2)
IC50 (CXCR4 [1]): > 10000 nM

Other lines, results leading:

IC50 (CXCR4 [1]): > 10000 nM
SMILES: CCCCCCCCCCCCCCCC(=O)N[C@@H](CCSC)C(=O)NCC(=O)N[C@@H](Cc1ccc(O)cc1)C(=O)N[C@@H](CCC(N)=O)C(=O)N[C@@H](CCCCN)C(=O)N[C@@H](CCCCN)C(=O)N[C@@H](CC(C)C)C(=O)N[C@@H](CCCNC(=N)N)C(=O)N[C@@H](CO)C(=O)N[C@@H](CCSC)C(=O)N[C@H](C(=O)N[C@@H](CC(=O)O)C(=O)N[C@@H](CCCCN)C(=O)N[C@H](Cc1ccc(O)cc1)C(=O)N[C@@H](CCCNC(=N)N)C(=O)N[C@@H](CC(C)C)C(N)=O)[C@@H](C)O [Compound 161] (Palmitoyl-MGYQKKLRSMTDK[dY]RL-NH2)

IC50 (CXCR4 [1]): 72 nM
SMILES: CCCCCCCCCCCCCCCC(=O)N[C@@H](CCSC)C(=O)NCC(=O)N[C@@H](Cc1ccc(O)cc1)C(=O)N[C@@H](CCC(N)=O)C(=O)N[C@@H](CCCCN)C(=O)N[C@@H](CCCCN)C(=O)N[C@H](CC(C)C)C(=O)N[C@@H](CCCNC(=N)N)C(=O)N[C@@H](CO)C(=O)N[C@@H](CCSC)C(=O)N[C@H](C(=O)N[C@@H](CC(=O)O)C(=O)N[C@@H](CCCCN)C(=O)N[C@@H](Cc1ccc(O)cc1)C(=O)N[C@@H](CCCNC(=N)N)C(=O)N[C@@H](CC(C)C)C(N)=O)[C@@H](C)O [Compound 170] (Palmitoyl-MGYQKK[dL]RSMTDKYRL-NH2)

IC50 (CXCR4 [1]): 72 nM
SMILES: CCCCCCCCCCCCCCCC(=O)N[C@@H](CCSC)C(=O)NCC(=O)N[C@@H](Cc1ccc(O)cc1)C(=O)N[C@@H](CCC(N)=O)C(=O)N[C@@H](CCCCN)C(=O)N[C@@H](CCCCN)C(=O)N[C@@H](CC(C)C)C(=O)N[C@H](CCCNC(=N)N)C(=O)N[C@@H](CO)C(=O)N[C@@H](CCSC)C(=O)N[C@H](C(=O)N[C@@H](CC(=O)O)C(=O)N[C@@H](CCCCN)C(=O)N[C@@H](Cc1ccc(O)cc1)C(=O)N[C@@H](CCCNC(=N)N)C(=O)N[C@@H](CC(C)C)C(N)=O)[C@@H](C)O [Compound 171] (Palmitoyl-MGYQKKL[dR]SMTDKYRL-NH2)

IC50 (CXCR4 [1]): > 10000 nM
SMILES: CCCCCCCCCCCCCCCC(=O)N[C@@H](CCSC)C(=O)NCC(=O)N[C@@H](Cc1ccc(O)cc1)C(=O)N[C@@H](CCC(N)=O)C(=O)N[C@@H](CCCCN)C(=O)N[C@@H](CCCCN)C(=O)N[C@@H](CC(C)C)C(=O)N[C@@H](CCCNC(=N)N)C(=O)N[C@@H](CO)C(=O)N[C@@H](CCSC)C(=O)N[C@H](C(=O)N[C@@H](CC(=O)O)C(=O)N[C@@H](CCCCN)C(=O)N[C@@H](Cc1ccc(O)cc1)C(=O)N[C@@H](CCCNC(=N)N)C(=O)N[C@H](CC(C)C)C(N)=O)[C@@H](C)O [Compound 159] (Palmitoyl-MGYQKKLRSMTDKYR[dL]-NH2)
